Among the test systems are SW-620 colon; LOX IMVI melanoma; MCF7 breast; IGROV1 ovarian; 786-0 renal; HCT-116 colon; SF-268 CNS; COLO 205 colon.
Holding throughout (test): NCI-60 cell line screen, 48 h

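A five-concentration, 48-hour dose response in 96-well plates underlies each endpoint, interpolated linearly between surrounding concentrations. GI50 = concentration required for 50% inhibition of growth. At the TGI there is no net growth.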 Some results are limits rather than exact numbers.

Take `Cc1ccc(S(=O)(=O)c2scc(-c3ccccc3)c2C)cc1`: the TGI in the test with SW-620 colon, in the test on LOX IMVI melanoma, with MCF7 breast, in the test with IGROV1 ovarian, with 786-0 renal and with HCT-116 colon was more than 100 µM throughout. The TGI in the test on SF-268 CNS and in the test on COLO 205 colon was more than 100 µM in each case.
Regarding `O=S(=O)(Oc1ccc2oc3ccccc3c2c1-c1c(OS(=O)(=O)C(F)(F)F)ccc2oc3ccccc3c12)C(F)(F)F`, the TGI with SW-620 colon, in the test on LOX IMVI melanoma, in the test on MCF7 breast, in the test on IGROV1 ovarian, in the test on 786-0 renal and in the test on HCT-116 colon was more than 100 µM each time. Further, the TGI in the test on SF-268 CNS and in the test on COLO 205 colon was more than 100 µM each time.
`Cc1nc2c(=S)[nH]ncc2[nH]1`: the TGI with SW-620 colon, in the test on LOX IMVI melanoma, in the test with MCF7 breast, in the test on IGROV1 ovarian, in the test on 786-0 renal and in the test with HCT-116 colon was more than 100 µM each time. The TGI in the test on COLO 205 colon was more than 100 µM.
In the case of `FC(F)(F)c1ccc(-c2nc(-c3nc4cc(Cl)c(Cl)cc4[nH]3)c3ccccn23)cc1`, the GI50 in the test on SW-620 colon is more than 100 µM; with IGROV1 ovarian, 16.1 µM; in the test with HCT-116 colon, 2.92 µM; with SF-268 CNS it was 4.19 µM; in the test with COLO 205 colon, more than 100 µM. In addition, the TGI with SW-620 colon, with IGROV1 ovarian, with HCT-116 colon, in the test on SF-268 CNS and in the test with COLO 205 colon was more than 100 µM throughout.
For the molecule `CN(C)CCNc1ccc(C(=O)NCCCN(C)CCCNC(=O)c2ccc(NCCN(C)C)c3c(=O)c4ccccc4[nH]c23)c2[nH]c3ccccc3c(=O)c12`, the TGI turned out to be 2.36 µM with SW-620 colon; 0.286 µM in the test on LOX IMVI melanoma; 0.489 µM in the test with MCF7 breast; 0.229 µM with IGROV1 ovarian; 1.66 µM in the test with 786-0 renal; 0.409 µM in the test on HCT-116 colon. Moreover, the TGI came to 0.544 µM in the test on SF-268 CNS and 0.727 µM in the test on COLO 205 colon.
Consider `COc1c2cc([N+](=O)[O-])cc1CNC(=O)CN1CCOCCOCCN(CCOCCOCC1)CC(=O)NC2`, for which the TGI in the test on SW-620 colon, in the test with LOX IMVI melanoma, with MCF7 breast, with IGROV1 ovarian, in the test with 786-0 renal and with HCT-116 colon was more than 100 µM throughout. The TGI in the test with SF-268 CNS and in the test with COLO 205 colon was more than 100 µM in each case.
With `CCCCNC1CCC2(SCCS2)c2[nH]c3ccccc3c21` (configuration not stated), the TGI in the test on SW-620 colon was more than 82.6 µM; with LOX IMVI melanoma, 14.4 µM; in the test with MCF7 breast, 13.2 µM; in the test on IGROV1 ovarian it was more than 100 µM; with 786-0 renal it was 80 µM; in the test with HCT-116 colon, 50.1 µM. Also, the TGI in the test on SF-268 CNS was more than 100 µM; with COLO 205 colon, more than 62.3 µM.
With `OCC1OC(c2scc3c(=S)nc[nH]c23)C(O)C1O` (configuration not stated), the TGI was more than 93.1 µM with SW-620 colon; more than 82.5 µM in the test with LOX IMVI melanoma; 27.3 µM with MCF7 breast; 46.5 µM with IGROV1 ovarian; more than 100 µM with 786-0 renal; more than 84.3 µM with HCT-116 colon. Moreover, the values for the TGI with SF-268 CNS and in the test on COLO 205 colon were more than 100 µM and 33.5 µM, respectively.
Turning to `CC[C@@]1(O)C(=O)OCc2c1cc1n(c2=O)Cc2c-1nc1ccccc1c2/C=N\NC(=O)C(N)CC(C)C` (some centres not stated), the TGI with SW-620 colon is more than 40.2 µM; with LOX IMVI melanoma it was 0.244 µM; in the test with MCF7 breast, more than 100 µM; in the test with IGROV1 ovarian, more than 22 µM; in the test on 786-0 renal, more than 100 µM; in the test with HCT-116 colon it was 5.37 µM. The TGI in the test with SF-268 CNS was 3.68 µM; in the test on COLO 205 colon it was 12.1 µM.
For the molecule `O=C1C=CC2CCC1C2` (configuration not stated), the TGI in the test on SW-620 colon, in the test on LOX IMVI melanoma, with MCF7 breast, with IGROV1 ovarian, in the test with 786-0 renal and with HCT-116 colon was more than 100 µM throughout. The TGI in the test with SF-268 CNS is 58.6 µM; in the test with COLO 205 colon it was more than 100 µM.
For `CNC(=O)c1ccccc1-[s+]1c2ccccc2c(=O)n1C` (configuration not stated), the TGI in the test on SW-620 colon, in the test on LOX IMVI melanoma, with MCF7 breast, in the test with IGROV1 ovarian, with 786-0 renal and in the test with HCT-116 colon was more than 100 µM throughout. In addition, the TGI in the test with SF-268 CNS and in the test on COLO 205 colon was more than 100 µM each time.
In the case of `CCOC(=O)c1cnc(-n2[nH]c(C)c(CCO)c2=O)[nH]c1=O`, the TGI in the test with SW-620 colon, in the test with LOX IMVI melanoma, with MCF7 breast, with IGROV1 ovarian, in the test with 786-0 renal and in the test with HCT-116 colon was more than 100 µM in each case. The TGI in the test on SF-268 CNS and in the test with COLO 205 colon was more than 100 µM in each case.
`CC(=O)NC1C(OCc2ccccc2)OC(CO)C(O)C1OCC(=O)NC(C)C(=O)NC(CCC(=O)NCCCCNc1ccc([N+](=O)[O-])c2[nH]c3ccccc3c(=O)c12)C(N)=O` (configuration not stated): the TGI with SW-620 colon, in the test with LOX IMVI melanoma, with MCF7 breast, with IGROV1 ovarian, with 786-0 renal and in the test on HCT-116 colon was more than 100 µM throughout. Further, the TGI in the test with SF-268 CNS and in the test on COLO 205 colon was more than 100 µM in each case.
Turning to `COc1ccc(-c2nc(N)c(C#N)c3c2CCS(=O)(=O)c2ccc(C)cc2-3)cc1OC`, the TGI with SW-620 colon, with LOX IMVI melanoma, in the test on IGROV1 ovarian, with 786-0 renal, with HCT-116 colon and with SF-268 CNS was more than 100 µM throughout. This molecule came in with a TGI in the test with COLO 205 colon of 79.5 µM.
Turning to `O=c1c2ccccc2oc2nc3n(c(=O)c12)CCCS3`, the TGI in the test with SW-620 colon, with LOX IMVI melanoma, in the test with MCF7 breast, with IGROV1 ovarian, in the test on 786-0 renal and in the test on HCT-116 colon was more than 100 µM in each case. The TGI with SF-268 CNS and in the test on COLO 205 colon was more than 100 µM each time.
Turning to `O=C1CSC2(CC(/C=C/c3ccccc3)=NN2c2cccc(S(=O)(=O)O)c2)N1c1nc2ccccc2s1` (configuration not stated), the TGI is more than 100 µM with SW-620 colon; 23.7 µM with LOX IMVI melanoma; 45 µM in the test with MCF7 breast; 56.6 µM in the test on IGROV1 ovarian; 33 µM with 786-0 renal; more than 100 µM with HCT-116 colon. Moreover, the TGI in the test with COLO 205 colon is more than 100 µM.

These data come from PubChem BioAssay (NCI).
